Laboratory results reported in the supplement of paper PMC10307832.

How the values were obtained:
Experiment in all cases: relative viability (nuclei count vs DMSO), 5 days (fraction); higher = more cells survive
[1] = tested on: HARA
In short: (§1)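 A single step with final 0.05% Triton X-100, 1% formaldehyde and 1 ug/ml Hoechst fixed the cells and stained nuclei 5 days after treatment. Lung cancer cell lines in 1536-well plates had been treated by pin tool the day after seeding with one drug alone or a fixed anchor-drug dose plus five library-drug doses (not always all listed) in √10 steps, and nuclei were counted on 4× images. Relative viability is the ratio of nuclei in treated wells to nuclei in vehicle wells, taken as the median of duplicate plates.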

[2] = tested on: NCI-H727
In short: as §1

[3] = tested on: EKVX
In short: as §1

[4] = tested on: NCI-H650
In short: as §1

[5] = tested on: NCI-H2126
In short: as §1

[6] = tested on: LOU-NH91
In short: as §1

[7] = tested on: NCI-H2405
In short: as §1

[8] = tested on: H3255
In short: as §1

[9] = tested on: PC-3 [JPC-3]
In short: as §1

[10] = tested on: NCI-H23
In short: as §1

[11] = tested on: HCC-827
In short: as §1

[12] = tested on: LCLC-103H
In short: as §1

[13] = tested on: NCI-H3122
In short: as §1

[14] = tested on: ChaGo-K-1
In short: as §1

[15] = tested on: HOP-62
In short: as §1

[16] = tested on: NCI-H596
In short: as §1

[17] = tested on: SW 900
In short: as §1

[18] = tested on: 201T
In short: as §1

[19] = tested on: NCI-H1975
In short: as §1

Question: With CCNC(=O)c1noc(-c2cc(C(C)C)c(O)cc2O)c1-c1ccc(CN2CCOCC2)cc1 [Luminespib] + NC(=O)Nc1cc(-c2cccc(F)c2)sc1C(=O)N[C@H]1CCCNC1 [AZD7762] (partner 0.2 µM) as the compound, how does the relative viability ([1]; first compound 0.002 µM) read?
Answer: The relative viability was 0.304.

Question: What about the relative viability ([1]; first compound 0.006325 µM) of the same compound?
Answer: The relative viability was 0.291.

Question: And the relative viability ([1]; first compound 0.02 µM)?
Answer: Its relative viability is 0.511.

Question: What about the relative viability ([1]; first compound 0.06325 µM) of the same compound?
Answer: The relative viability was 0.18.

Question: And the relative viability ([1]; first compound 0.2 µM)?
Answer: The relative viability was 0.125.

Question: What about the relative viability ([2]; first compound 0.002 µM) of the same compound?
Answer: Its relative viability is 0.53.

Question: And the relative viability ([2]; first compound 0.006325 µM)?
Answer: Its relative viability is 0.493.

Question: And the relative viability ([2]; first compound 0.02 µM)?
Answer: The relative viability was 0.57.

Question: And the relative viability ([2]; first compound 0.06325 µM)?
Answer: The relative viability was 0.36.

Question: And the relative viability ([2]; first compound 0.2 µM)?
Answer: The relative viability was 0.323.

Question: And the relative viability ([3]; first compound 0.002 µM)?
Answer: The relative viability was 0.669.

Question: And the relative viability ([3]; first compound 0.006325 µM)?
Answer: The relative viability was 0.68.

Question: And the relative viability ([3]; first compound 0.02 µM)?
Answer: The relative viability was 0.475.

Question: And the relative viability ([3]; first compound 0.06325 µM)?
Answer: The relative viability was 0.239.

Question: And the relative viability ([3]; first compound 0.2 µM)?
Answer: The relative viability was 0.104.

Question: What about the relative viability ([4]; first compound 0.002 µM) of the same compound?
Answer: The relative viability was 0.93.

Question: What about the relative viability ([4]; first compound 0.006325 µM) of the same compound?
Answer: The relative viability was 0.958.

Question: What about the relative viability ([4]; first compound 0.02 µM) of the same compound?
Answer: Its relative viability is 0.587.

Question: What about the relative viability ([4]; first compound 0.06325 µM) of the same compound?
Answer: The relative viability was 0.139.

Question: And the relative viability ([4]; first compound 0.2 µM)?
Answer: Its relative viability is 0.0919.

Question: What about the relative viability ([5]; first compound 0.002 µM) of the same compound?
Answer: Its relative viability is 0.984.

Question: And the relative viability ([5]; first compound 0.006325 µM)?
Answer: The relative viability was 1.01.

Question: What about the relative viability ([5]; first compound 0.06325 µM) of the same compound?
Answer: Its relative viability is 0.846.

Question: And the relative viability ([5]; first compound 0.2 µM)?
Answer: Its relative viability is 0.296.

Question: What about the relative viability ([6]; first compound 0.002 µM) of the same compound?
Answer: Its relative viability is 0.797.

Question: And the relative viability ([6]; first compound 0.006325 µM)?
Answer: Its relative viability is 0.799.

Question: What about the relative viability ([6]; first compound 0.02 µM) of the same compound?
Answer: Its relative viability is 0.66.

Question: What about the relative viability ([6]; first compound 0.06325 µM) of the same compound?
Answer: The relative viability was 0.322.

Question: What about the relative viability ([6]; first compound 0.2 µM) of the same compound?
Answer: Its relative viability is 0.318.

Question: And the relative viability ([7]; first compound 0.002 µM)?
Answer: The relative viability was 0.865.

Question: What about the relative viability ([7]; first compound 0.02 µM) of the same compound?
Answer: Its relative viability is 0.711.

Question: And the relative viability ([7]; first compound 0.06325 µM)?
Answer: Its relative viability is 0.167.

Question: What about the relative viability ([7]; first compound 0.2 µM) of the same compound?
Answer: Its relative viability is 0.127.

Question: What about the relative viability ([8]; first compound 0.002 µM) of the same compound?
Answer: Its relative viability is 0.857.

Question: And the relative viability ([8]; first compound 0.006325 µM)?
Answer: The relative viability was 0.794.

Question: What about the relative viability ([8]; first compound 0.02 µM) of the same compound?
Answer: Its relative viability is 0.808.

Question: What about the relative viability ([8]; first compound 0.06325 µM) of the same compound?
Answer: The relative viability was 0.774.

Question: What about the relative viability ([8]; first compound 0.2 µM) of the same compound?
Answer: Its relative viability is 0.31.

Question: And the relative viability ([9]; first compound 0.002 µM)?
Answer: The relative viability was 0.747.

Question: And the relative viability ([9]; first compound 0.006325 µM)?
Answer: The relative viability was 0.86.

Question: What about the relative viability ([9]; first compound 0.02 µM) of the same compound?
Answer: The relative viability was 0.492.

Question: And the relative viability ([9]; first compound 0.06325 µM)?
Answer: The relative viability was 0.319.

Question: And the relative viability ([9]; first compound 0.2 µM)?
Answer: The relative viability was 0.337.

Question: And the relative viability ([10]; first compound 0.002 µM)?
Answer: Its relative viability is 0.258.

Question: And the relative viability ([10]; first compound 0.006325 µM)?
Answer: Its relative viability is 0.247.

Question: And the relative viability ([10]; first compound 0.02 µM)?
Answer: The relative viability was 0.259.

Question: And the relative viability ([10]; first compound 0.06325 µM)?
Answer: Its relative viability is 0.133.

Question: And the relative viability ([10]; first compound 0.2 µM)?
Answer: The relative viability was 0.11.

Question: And the relative viability ([11]; first compound 0.002 µM)?
Answer: Its relative viability is 0.162.

Question: What about the relative viability ([11]; first compound 0.006325 µM) of the same compound?
Answer: The relative viability was 0.234.

Question: What about the relative viability ([11]; first compound 0.02 µM) of the same compound?
Answer: The relative viability was 0.16.

Question: What about the relative viability ([11]; first compound 0.06325 µM) of the same compound?
Answer: The relative viability was 0.124.

Question: What about the relative viability ([11]; first compound 0.2 µM) of the same compound?
Answer: The relative viability was 0.0952.

Question: What about the relative viability ([12]; first compound 0.002 µM) of the same compound?
Answer: Its relative viability is 0.934.

Question: And the relative viability ([12]; first compound 0.006325 µM)?
Answer: The relative viability was 0.699.

Question: What about the relative viability ([12]; first compound 0.02 µM) of the same compound?
Answer: The relative viability was 0.639.

Question: And the relative viability ([12]; first compound 0.06325 µM)?
Answer: Its relative viability is 0.739.

Question: And the relative viability ([12]; first compound 0.2 µM)?
Answer: Its relative viability is 0.726.

Question: And the relative viability ([13]; first compound 0.002 µM)?
Answer: The relative viability was 0.948.

Question: What about the relative viability ([13]; first compound 0.006325 µM) of the same compound?
Answer: The relative viability was 0.942.

Question: And the relative viability ([13]; first compound 0.02 µM)?
Answer: The relative viability was 0.626.

Question: And the relative viability ([13]; first compound 0.06325 µM)?
Answer: The relative viability was 0.109.

Question: What about the relative viability ([13]; first compound 0.2 µM) of the same compound?
Answer: Its relative viability is 0.0654.

Question: And the relative viability ([14]; first compound 0.002 µM)?
Answer: Its relative viability is 0.9.

Question: And the relative viability ([14]; first compound 0.006325 µM)?
Answer: The relative viability was 0.905.

Question: And the relative viability ([14]; first compound 0.02 µM)?
Answer: Its relative viability is 0.799.

Question: And the relative viability ([14]; first compound 0.06325 µM)?
Answer: The relative viability was 0.515.

Question: What about the relative viability ([14]; first compound 0.2 µM) of the same compound?
Answer: Its relative viability is 0.172.

Question: What about the relative viability ([15]; first compound 0.002 µM) of the same compound?
Answer: The relative viability was 0.437.

Question: What about the relative viability ([15]; first compound 0.006325 µM) of the same compound?
Answer: Its relative viability is 0.463.

Question: And the relative viability ([15]; first compound 0.02 µM)?
Answer: The relative viability was 0.306.

Question: And the relative viability ([15]; first compound 0.06325 µM)?
Answer: Its relative viability is 0.129.

Question: What about the relative viability ([15]; first compound 0.2 µM) of the same compound?
Answer: Its relative viability is 0.109.

Question: And the relative viability ([16]; first compound 0.002 µM)?
Answer: The relative viability was 1.11.

Question: What about the relative viability ([16]; first compound 0.006325 µM) of the same compound?
Answer: Its relative viability is 1.17.

Question: What about the relative viability ([16]; first compound 0.02 µM) of the same compound?
Answer: Its relative viability is 0.857.

Question: And the relative viability ([16]; first compound 0.06325 µM)?
Answer: Its relative viability is 0.934.

Question: What about the relative viability ([16]; first compound 0.2 µM) of the same compound?
Answer: The relative viability was 0.879.

Question: What about the relative viability ([17]; first compound 0.002 µM) of the same compound?
Answer: Its relative viability is 0.667.

Question: And the relative viability ([17]; first compound 0.006325 µM)?
Answer: Its relative viability is 0.752.

Question: And the relative viability ([17]; first compound 0.02 µM)?
Answer: The relative viability was 0.396.

Question: And the relative viability ([17]; first compound 0.06325 µM)?
Answer: The relative viability was 0.129.

Question: And the relative viability ([17]; first compound 0.2 µM)?
Answer: The relative viability was 0.13.

Question: What about the relative viability ([18]; first compound 0.002 µM) of the same compound?
Answer: Its relative viability is 0.621.

Question: And the relative viability ([18]; first compound 0.006325 µM)?
Answer: Its relative viability is 0.555.

Question: And the relative viability ([18]; first compound 0.02 µM)?
Answer: The relative viability was 0.525.

Question: And the relative viability ([18]; first compound 0.06325 µM)?
Answer: Its relative viability is 0.516.

Question: What about the relative viability ([18]; first compound 0.2 µM) of the same compound?
Answer: Its relative viability is 0.318.

Question: What about the relative viability ([19]; first compound 0.002 µM) of the same compound?
Answer: The relative viability was 0.686.

Question: And the relative viability ([19]; first compound 0.006325 µM)?
Answer: Its relative viability is 0.735.

Question: And the relative viability ([19]; first compound 0.02 µM)?
Answer: Its relative viability is 0.348.

Question: And the relative viability ([19]; first compound 0.06325 µM)?
Answer: Its relative viability is 0.167.

Question: What about the relative viability ([19]; first compound 0.2 µM) of the same compound?
Answer: Its relative viability is 0.165.
